Measurements as given in patent publication US10597388B2, “Pyridazinone herbicides” (FMC CORPORATION, priority 2014, dated 2020).

Key:
Assay type in all cases: in vivo
[1] = test system: ragweed (common ragweed, Ambrosia elatior); assay: Test C greenhouse herbicide test, pre- and postemergence
How it was run: (§1)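 Each species was treated both before emergence, in a loam–sand soil mix, and after emergence, as 1- to 4-leaf seedlings in peat-based potting medium. Plants stayed in the greenhouse 13 to 15 d, then were scored from 0 (no effect) to 100 (complete control) relative to controls.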

corn (Zea mays) = assay: as above
How it was run: as §1

[2] = test system: ryegrass, Italian (Italian ryegrass, Lolium multiflorum); assay: as above
How it was run: as §1

[3] = test system: johnsongrass (Sorghum halepense); assay: as above
How it was run: as §1

[4] = test system: waterhemp (common waterhemp, Amaranthus rudis); assay: as above
How it was run: as §1

[5] = test system: lambsquarters (Chenopodium album); assay: as above
How it was run: as §1

soybean (Glycine max) = assay: as above
How it was run: as §1

[6] = test system: pigweed (Amaranthus retroflexus); assay: as above
How it was run: as §1

[7] = test system: foxtail, giant (giant foxtail, Setaria faberii); assay: as above
How it was run: as §1

[8] = test system: crabgrass, large (large crabgrass, Digitaria sanguinalis); assay: as above
How it was run: as §1

[9] = test system: morningglory (Ipomoea coccinea); assay: as above
How it was run: as §1

[10] = test system: blackgrass (Alopecurus myosuroides); assay: as above
How it was run: as §1

[11] = test system: velvetleaf (Abutilon theophrasti); assay: as above
How it was run: as §1

[12] = test system: oilseed rape (Brassica napus); assay: as above
How it was run: as §1

[13] = test system: oat, wild (wild oat, Avena fatua); assay: Test C greenhouse herbicide test, postemergence; conditions: for Plant response rating, Oat, Wild: Postemergence
How it was run: (§2)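 Visual injury scores (0–100, where 100 means complete control) were assigned 13 to 15 d after postemergence application, by comparison with untreated plants. Treated seedlings stood 2 to 18 cm tall, at the 1- to 4-leaf stage.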

kochia (Kochia scoparia) = assay: Test C greenhouse herbicide test, postemergence; conditions: for Plant response rating, Kochia: Postemergence
How it was run: as §2

[14] = Postemergence, 125 g ai/ha, scale 0 to 100, 0 is no effect, 100 is complete control
[15] = Postemergence, 250 g ai/ha, scale 0 to 100, 0 no effect, 100 complete control, 13 to 15 d
[16] = Preemergence, 31 g ai/ha, scale 0 to 100, 0 is no effect, 100 is complete control
[17] = Preemergence, 62 g ai/ha, scale 0 to 100, 0 is no effect, 100 is complete control
[18] = Preemergence, 125 g ai/ha, scale 0 to 100, 0 is no effect, 100 is complete control
[19] = Preemergence, 250 g ai/ha, scale 0 to 100 (0 no effect, 100 complete control)
[20] = postemergence, 62 g ai/ha, scale 0 to 100, 0 no effect, 100 complete control
[21] = Postemergence, 31 g ai/ha, 0 to 100 scale (0 no effect, 100 complete control)
[22] = 125 g ai/ha, scale 0 to 100, 0 is no effect, 100 is complete control
[23] = 250 g ai/ha, scale 0 to 100, 0 no effect, 100 complete control, 13 to 15 d

C#CCOC(=O)Oc1c(C)nn(C)c(=O)c1-c1c(C)sc2ccc(C)cc12 [Compound 87]
Plant response rating, Ragweed [1, 14]: 95 | Plant response rating, Ragweed [1, 15]: 100 | Plant response rating, Ragweed [1, 16]: 90 | Plant response rating, Ragweed [1, 17]: 90 | Plant response rating, Ragweed [1, 18]: 95 | Ragweed plant response rating [1, 19]: 90 | Ragweed plant response rating [1, 20]: 95 | Corn plant response rating (corn (Zea mays); [21]): 5 | Plant response rating, Corn (corn (Zea mays); [14]): 30 | Plant response rating, Corn (corn (Zea mays); [15]): 5 | Plant response rating, Corn (corn (Zea mays); [16]): 0 | Plant response rating, Corn (corn (Zea mays); [17]): 10 | Plant response rating, Corn (corn (Zea mays); [18]): 0 | Corn plant response rating (corn (Zea mays); [19]): 10 | Corn plant response rating (corn (Zea mays); [20]): 5 | Plant response rating, Ryegrass, Italian [2, 14]: 85 | Plant response rating, Ryegrass, Italian [2, 15]: 85 | Plant response rating, Ryegrass, Italian [2, 16]: 35 | Plant response rating, Ryegrass, Italian [2, 17]: 90 | Plant response rating, Ryegrass, Italian [2, 18]: 90 | Ryegrass, Italian plant response rating [2, 19]: 90 | Ryegrass, Italian plant response rating [2, 20]: 80 | Plant response rating, Johnsongrass [3, 14]: 5 | Plant response rating, Johnsongrass [3, 15]: 10 | Plant response rating, Johnsongrass [3, 16]: 5 | Plant response rating, Johnsongrass [3, 17]: 25 | Plant response rating, Johnsongrass [3, 18]: 40 | Johnsongrass plant response rating [3, 19]: 40 | Johnsongrass plant response rating [3, 20]: 5 | Plant response rating, Waterhemp [4, 14]: 90 | Plant response rating, Waterhemp [4, 15]: 90 | Plant response rating, Waterhemp [4, 16]: 100 | Plant response rating, Waterhemp [4, 17]: 100 | Plant response rating, Waterhemp [4, 18]: 100 | Waterhemp plant response rating [4, 19]: 100 | Waterhemp plant response rating [4, 20]: 80 | Plant response rating, Lambsquarters [5, 14]: 98 | Plant response rating, Lambsquarters [5, 15]: 100 | Plant response rating, Lambsquarters [5, 16]: 55 | Plant response rating, Lambsquarters [5, 17]: 80 | Plant response rating, Lambsquarters [5, 18]: 85 | Lambsquarters plant response rating [5, 19]: 100 | Lambsquarters plant response rating [5, 20]: 98 | Plant response rating, Soybean (soybean (Glycine max); [14]): 10 | Plant response rating, Soybean (soybean (Glycine max); [15]): 5 | Plant response rating, Soybean (soybean (Glycine max); [16]): 0 | Plant response rating, Soybean (soybean (Glycine max); [17]): 0 | Plant response rating, Soybean (soybean (Glycine max); [18]): 100 | Soybean plant response rating (soybean (Glycine max); [19]): 0 | Soybean plant response rating (soybean (Glycine max); [20]): 0 | Plant response rating, Pigweed [6, 14]: 90 | Plant response rating, Pigweed [6, 15]: 98 | Plant response rating, Pigweed [6, 16]: 75 | Plant response rating, Pigweed [6, 17]: 100 | Plant response rating, Pigweed [6, 18]: 100 | Pigweed plant response rating [6, 19]: 100 | Pigweed plant response rating [6, 20]: 90 | Plant response rating, Foxtail, Giant [7, 14]: 75 | Plant response rating, Foxtail, Giant [7, 15]: 85 | Plant response rating, Foxtail, Giant [7, 16]: 70 | Plant response rating, Foxtail, Giant [7, 17]: 80 | Plant response rating, Foxtail, Giant [7, 18]: 90 | Foxtail, Giant plant response rating [7, 19]: 95 | Foxtail, Giant plant response rating [7, 20]: 55 | Plant response rating, Crabgrass, Large [8, 14]: 25 | Plant response rating, Crabgrass, Large [8, 15]: 35 | Plant response rating, Crabgrass, Large [8, 16]: 10 | Plant response rating, Crabgrass, Large [8, 17]: 65 | Plant response rating, Crabgrass, Large [8, 18]: 80 | Crabgrass, Large plant response rating [8, 19]: 85 | Crabgrass, Large plant response rating [8, 20]: 10 | Plant response rating, Morningglory [9, 14]: 100 | Plant response rating, Morningglory [9, 15]: 100 | Plant response rating, Morningglory [9, 16]: 85 | Plant response rating, Morningglory [9, 17]: 90 | Plant response rating, Morningglory [9, 18]: 95 | Morningglory plant response rating [9, 19]: 95 | Morningglory plant response rating [9, 20]: 98 | Blackgrass plant response rating [10, 21]: 10 | Plant response rating, Blackgrass [10, 14]: 60 | Plant response rating, Blackgrass [10, 15]: 65 | Plant response rating, Blackgrass [10, 16]: 40 | Plant response rating, Blackgrass [10, 17]: 30 | Plant response rating, Blackgrass [10, 18]: 85 | Blackgrass plant response rating [10, 19]: 90 | Blackgrass plant response rating [10, 20]: 35 | Plant response rating, Velvetleaf [11, 14]: 90 | Plant response rating, Velvetleaf [11, 15]: 90 | Plant response rating, Velvetleaf [11, 16]: 55 | Plant response rating, Velvetleaf [11, 17]: 85 | Plant response rating, Velvetleaf [11, 18]: 90 | Velvetleaf plant response rating [11, 19]: 90 | Velvetleaf plant response rating [11, 20]: 85 | Plant response rating, Oilseed Rape [12, 14]: 50 | Plant response rating, Oilseed Rape [12, 15]: 20 | Plant response rating, Oilseed Rape [12, 16]: 30 | Plant response rating, Oilseed Rape [12, 17]: 30 | Plant response rating, Oilseed Rape [12, 18]: 85 | Oilseed Rape plant response rating [12, 19]: 80 | Oilseed Rape plant response rating [12, 20]: 50 | Plant response rating, Oat, Wild [13, 22]: 85 | Plant response rating, Oat, Wild [13, 23]: 90 | Oat, Wild plant response rating [13, 20]: 90 | Plant response rating, Kochia (kochia (Kochia scoparia); [22]): 90 | Plant response rating, Kochia (kochia (Kochia scoparia); [23]): 95 | Kochia plant response rating (kochia (Kochia scoparia); [20]): 90
